The numbers were not newly measured in patent US20140128469A1, “[…]-BUTYL BUMETANIDE” (CONCERT PHARMACEUTICALS INC., priority 2011, published 2014), which cites them from elsewhere.

Structures are written as SMILES.

The conditions of data set [1]: preclinical toxicology studies, see WO 2010/085352.
The next data set concerns models of migraine. The conditions noted are these: in vivo.
Data set [2] has as its target T1, Na+K+2Cl— co-transporter (NKCC1) (Homo sapiens, UniProt P55011).
T1 sequence (P55011 1-1212): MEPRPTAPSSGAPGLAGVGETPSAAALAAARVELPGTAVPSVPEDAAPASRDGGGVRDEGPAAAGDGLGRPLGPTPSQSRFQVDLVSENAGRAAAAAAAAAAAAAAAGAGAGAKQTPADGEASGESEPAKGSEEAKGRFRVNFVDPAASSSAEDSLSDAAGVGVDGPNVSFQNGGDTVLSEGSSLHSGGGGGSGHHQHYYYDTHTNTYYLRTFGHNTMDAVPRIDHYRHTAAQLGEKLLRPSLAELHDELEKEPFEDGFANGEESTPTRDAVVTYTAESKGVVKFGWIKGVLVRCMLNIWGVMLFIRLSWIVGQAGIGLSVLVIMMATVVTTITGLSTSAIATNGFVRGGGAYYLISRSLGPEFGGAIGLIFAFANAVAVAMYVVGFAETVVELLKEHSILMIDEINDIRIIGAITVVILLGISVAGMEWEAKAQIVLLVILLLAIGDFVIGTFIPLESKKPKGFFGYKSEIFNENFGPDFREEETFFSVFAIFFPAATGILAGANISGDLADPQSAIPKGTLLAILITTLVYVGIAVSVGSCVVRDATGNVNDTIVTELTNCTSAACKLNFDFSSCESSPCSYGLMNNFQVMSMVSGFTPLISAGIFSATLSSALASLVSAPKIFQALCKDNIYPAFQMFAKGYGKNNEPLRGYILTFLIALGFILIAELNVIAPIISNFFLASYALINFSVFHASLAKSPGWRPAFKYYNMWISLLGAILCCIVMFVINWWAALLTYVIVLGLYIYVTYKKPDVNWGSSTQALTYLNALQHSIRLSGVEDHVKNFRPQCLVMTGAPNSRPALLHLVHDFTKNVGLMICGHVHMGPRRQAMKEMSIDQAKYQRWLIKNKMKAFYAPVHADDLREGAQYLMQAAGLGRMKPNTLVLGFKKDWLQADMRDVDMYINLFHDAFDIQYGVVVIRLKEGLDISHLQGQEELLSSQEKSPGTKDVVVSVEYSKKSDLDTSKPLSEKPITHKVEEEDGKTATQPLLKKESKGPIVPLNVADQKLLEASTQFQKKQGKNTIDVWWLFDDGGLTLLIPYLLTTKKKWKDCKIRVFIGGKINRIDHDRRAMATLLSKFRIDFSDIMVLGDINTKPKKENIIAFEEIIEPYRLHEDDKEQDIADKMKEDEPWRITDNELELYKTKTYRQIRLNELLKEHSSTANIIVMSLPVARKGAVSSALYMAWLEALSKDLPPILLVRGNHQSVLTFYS

For data set [3], the target named is T2, Na+K+2Cl— co-transporter (NKCC2) (Homo sapiens, UniProt Q13621).
T2 sequence (Q13621 1-1099): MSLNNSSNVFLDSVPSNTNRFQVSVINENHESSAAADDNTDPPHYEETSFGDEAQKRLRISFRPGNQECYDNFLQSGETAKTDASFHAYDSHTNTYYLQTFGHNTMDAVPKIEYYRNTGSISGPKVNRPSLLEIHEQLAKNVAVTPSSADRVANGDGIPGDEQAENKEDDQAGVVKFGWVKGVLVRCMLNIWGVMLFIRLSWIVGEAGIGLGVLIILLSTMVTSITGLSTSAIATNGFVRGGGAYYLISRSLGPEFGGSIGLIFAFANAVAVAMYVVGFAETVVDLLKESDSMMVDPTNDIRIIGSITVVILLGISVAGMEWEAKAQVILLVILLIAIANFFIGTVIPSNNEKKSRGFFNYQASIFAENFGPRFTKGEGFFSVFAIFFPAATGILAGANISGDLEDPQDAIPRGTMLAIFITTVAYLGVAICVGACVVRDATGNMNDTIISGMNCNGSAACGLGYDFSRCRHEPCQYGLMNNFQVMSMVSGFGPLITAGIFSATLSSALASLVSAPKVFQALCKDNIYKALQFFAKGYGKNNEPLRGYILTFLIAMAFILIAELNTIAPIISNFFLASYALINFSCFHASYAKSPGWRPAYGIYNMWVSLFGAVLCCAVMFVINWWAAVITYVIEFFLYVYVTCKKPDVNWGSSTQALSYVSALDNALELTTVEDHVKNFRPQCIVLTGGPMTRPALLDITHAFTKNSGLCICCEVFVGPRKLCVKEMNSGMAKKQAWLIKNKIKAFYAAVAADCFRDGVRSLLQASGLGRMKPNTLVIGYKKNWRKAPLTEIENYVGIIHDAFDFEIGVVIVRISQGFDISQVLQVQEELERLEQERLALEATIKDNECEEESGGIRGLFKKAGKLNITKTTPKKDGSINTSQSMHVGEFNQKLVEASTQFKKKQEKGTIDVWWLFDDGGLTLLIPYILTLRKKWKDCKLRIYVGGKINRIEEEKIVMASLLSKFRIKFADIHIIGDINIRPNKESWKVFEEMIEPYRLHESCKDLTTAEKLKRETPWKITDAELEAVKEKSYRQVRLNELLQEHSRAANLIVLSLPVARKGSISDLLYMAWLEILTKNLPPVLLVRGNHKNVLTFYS

The conditions of data set [4]: preclinical models.
The subject of data set [5] is models of neuropathic and nociceptive pain. The conditions noted are these: in vivo.

For the compound `CCCCN(CCCC)c1cc(C(=O)O)cc(S(N)(=O)=O)c1Oc1ccccc1` [N-butyl bumetanide], the amelioration of seizures entry with models of epilepsy (epilepsy models resistant to currently-marketed anti-epileptic drugs) is “effective in ameliorating seizures”. Also, the “efficacy in models of epilepsy” value in the data set on models of epilepsy (in vivo) was “effective”. In addition, in data set [1], the therapeutic safety margin entry is “large therapeutic safety margin”. For the same compound, in the data set with models of migraine, the “efficacy in models of migraine” value is recorded as “effective”. Further, the “action on NKCC1” value in data set [2] is “does not act on”. Further, the “action on NKCC2” value in data set [3] is listed as “does not act on”. Also, the diuresis entry in data set [4] is recorded as “does not cause diuresis”. Besides, in the data set with GABAA, the GABAA modulation result is on record as “subtype-selective GABAA modulatory actions”. Further, in data set [5], the “efficacy in models of neuropathic and nociceptive pain” value is given as “effective”.
